{"source": "patent US12447153B2", "about": "“HER2 mutation inhibitors” (Array BioPharma Inc., priority 2021, dated 2025)", "key": {"ErbB2 WT": {"biological_target": "ErbB2 WT (Homo sapiens (Human), UniProt P04626)", "sequence (P04626 23-1255)": "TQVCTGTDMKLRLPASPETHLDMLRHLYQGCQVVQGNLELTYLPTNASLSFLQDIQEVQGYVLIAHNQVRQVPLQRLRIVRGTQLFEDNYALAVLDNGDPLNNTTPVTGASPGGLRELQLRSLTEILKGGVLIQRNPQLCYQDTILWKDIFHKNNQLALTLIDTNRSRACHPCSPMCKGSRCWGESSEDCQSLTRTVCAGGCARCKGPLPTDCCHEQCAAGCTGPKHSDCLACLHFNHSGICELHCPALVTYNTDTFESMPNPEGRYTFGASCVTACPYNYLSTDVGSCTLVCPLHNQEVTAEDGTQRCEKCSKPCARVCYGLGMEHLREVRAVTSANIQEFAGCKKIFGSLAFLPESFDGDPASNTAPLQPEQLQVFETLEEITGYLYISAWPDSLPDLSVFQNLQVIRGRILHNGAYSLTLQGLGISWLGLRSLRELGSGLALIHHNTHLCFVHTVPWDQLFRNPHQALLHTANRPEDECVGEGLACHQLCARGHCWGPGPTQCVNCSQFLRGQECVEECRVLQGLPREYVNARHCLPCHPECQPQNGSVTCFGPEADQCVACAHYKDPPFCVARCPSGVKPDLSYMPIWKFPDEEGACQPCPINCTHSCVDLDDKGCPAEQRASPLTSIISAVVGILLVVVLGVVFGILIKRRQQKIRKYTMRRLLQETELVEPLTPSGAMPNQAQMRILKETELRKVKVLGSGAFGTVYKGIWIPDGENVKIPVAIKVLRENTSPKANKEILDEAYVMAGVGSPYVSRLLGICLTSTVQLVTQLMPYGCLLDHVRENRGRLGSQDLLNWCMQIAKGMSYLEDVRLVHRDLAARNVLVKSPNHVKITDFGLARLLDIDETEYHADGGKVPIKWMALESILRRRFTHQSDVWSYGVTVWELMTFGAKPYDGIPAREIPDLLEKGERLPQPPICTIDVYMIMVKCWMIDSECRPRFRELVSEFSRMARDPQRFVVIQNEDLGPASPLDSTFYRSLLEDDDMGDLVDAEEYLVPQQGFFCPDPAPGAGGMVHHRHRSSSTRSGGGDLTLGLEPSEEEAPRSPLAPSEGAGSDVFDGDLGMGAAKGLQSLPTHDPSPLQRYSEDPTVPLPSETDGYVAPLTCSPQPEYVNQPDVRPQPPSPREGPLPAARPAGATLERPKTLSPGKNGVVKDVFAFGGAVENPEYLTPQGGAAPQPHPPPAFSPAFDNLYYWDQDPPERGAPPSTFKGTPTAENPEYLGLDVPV", "test": "ErbB Enzyme Assay (HTRF KinEASE-TK), Assay 2", "format": "biochemical", "conditions": "ErbB2 WT enzyme"}, "EGFR wild type (EGFR WT)": {"biological_target": "EGFR wild type (EGFR WT) (Homo sapiens (Human), UniProt P00533)", "sequence (P00533 25-1210)": "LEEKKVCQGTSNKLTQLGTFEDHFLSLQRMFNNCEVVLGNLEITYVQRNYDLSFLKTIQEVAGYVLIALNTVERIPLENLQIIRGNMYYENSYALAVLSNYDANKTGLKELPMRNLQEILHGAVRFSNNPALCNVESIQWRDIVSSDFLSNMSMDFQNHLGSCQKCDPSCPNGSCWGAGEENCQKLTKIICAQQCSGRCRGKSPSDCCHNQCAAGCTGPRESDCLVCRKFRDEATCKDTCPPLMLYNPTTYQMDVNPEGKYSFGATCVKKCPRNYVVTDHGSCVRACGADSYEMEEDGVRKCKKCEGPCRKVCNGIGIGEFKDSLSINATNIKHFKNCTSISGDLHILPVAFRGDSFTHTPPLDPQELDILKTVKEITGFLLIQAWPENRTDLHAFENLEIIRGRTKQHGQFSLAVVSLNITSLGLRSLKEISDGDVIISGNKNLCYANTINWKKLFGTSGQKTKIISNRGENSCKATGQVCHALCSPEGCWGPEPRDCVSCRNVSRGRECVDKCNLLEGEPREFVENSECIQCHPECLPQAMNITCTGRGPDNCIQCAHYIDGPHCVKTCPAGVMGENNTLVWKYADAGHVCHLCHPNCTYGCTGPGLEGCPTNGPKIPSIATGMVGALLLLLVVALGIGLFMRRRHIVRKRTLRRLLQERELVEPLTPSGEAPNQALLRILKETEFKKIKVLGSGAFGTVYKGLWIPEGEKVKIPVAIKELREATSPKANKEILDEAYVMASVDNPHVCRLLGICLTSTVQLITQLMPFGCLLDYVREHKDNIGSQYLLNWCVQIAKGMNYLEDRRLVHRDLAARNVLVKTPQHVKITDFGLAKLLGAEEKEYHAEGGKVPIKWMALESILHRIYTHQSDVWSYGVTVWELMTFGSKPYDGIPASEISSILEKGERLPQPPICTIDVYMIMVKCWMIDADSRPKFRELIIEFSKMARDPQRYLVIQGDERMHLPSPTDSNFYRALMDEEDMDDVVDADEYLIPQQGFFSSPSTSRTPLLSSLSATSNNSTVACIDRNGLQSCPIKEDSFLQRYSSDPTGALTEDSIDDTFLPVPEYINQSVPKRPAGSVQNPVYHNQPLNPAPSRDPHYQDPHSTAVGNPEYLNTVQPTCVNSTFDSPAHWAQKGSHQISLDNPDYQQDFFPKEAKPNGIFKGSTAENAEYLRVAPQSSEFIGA", "test": "Cellular Phosphorylation Assay, Assay 5 (EGF-stimulated EGFR phosphorylation, NIH 3T3 cells)", "format": "cell-based", "conditions": "EGF-stimulated EGFR WT phosphorylation"}, "EGFR": {"biological_target": "EGFR (Homo sapiens (Human), UniProt P00533)", "test": "ErbB Enzyme Assay (HTRF KinEASE-TK), Assay 3", "format": "biochemical", "conditions": "EGFR enzyme"}, "[1]": {"biological_target": "ErbB2 with Exon 20 YVMA insertion (HER2-YVMA) (Homo sapiens (Human), UniProt P04626, INS775YVMA)", "sequence (P04626 other isoform, or with tags, fused parts or gaps ins YVMA behind 775)": "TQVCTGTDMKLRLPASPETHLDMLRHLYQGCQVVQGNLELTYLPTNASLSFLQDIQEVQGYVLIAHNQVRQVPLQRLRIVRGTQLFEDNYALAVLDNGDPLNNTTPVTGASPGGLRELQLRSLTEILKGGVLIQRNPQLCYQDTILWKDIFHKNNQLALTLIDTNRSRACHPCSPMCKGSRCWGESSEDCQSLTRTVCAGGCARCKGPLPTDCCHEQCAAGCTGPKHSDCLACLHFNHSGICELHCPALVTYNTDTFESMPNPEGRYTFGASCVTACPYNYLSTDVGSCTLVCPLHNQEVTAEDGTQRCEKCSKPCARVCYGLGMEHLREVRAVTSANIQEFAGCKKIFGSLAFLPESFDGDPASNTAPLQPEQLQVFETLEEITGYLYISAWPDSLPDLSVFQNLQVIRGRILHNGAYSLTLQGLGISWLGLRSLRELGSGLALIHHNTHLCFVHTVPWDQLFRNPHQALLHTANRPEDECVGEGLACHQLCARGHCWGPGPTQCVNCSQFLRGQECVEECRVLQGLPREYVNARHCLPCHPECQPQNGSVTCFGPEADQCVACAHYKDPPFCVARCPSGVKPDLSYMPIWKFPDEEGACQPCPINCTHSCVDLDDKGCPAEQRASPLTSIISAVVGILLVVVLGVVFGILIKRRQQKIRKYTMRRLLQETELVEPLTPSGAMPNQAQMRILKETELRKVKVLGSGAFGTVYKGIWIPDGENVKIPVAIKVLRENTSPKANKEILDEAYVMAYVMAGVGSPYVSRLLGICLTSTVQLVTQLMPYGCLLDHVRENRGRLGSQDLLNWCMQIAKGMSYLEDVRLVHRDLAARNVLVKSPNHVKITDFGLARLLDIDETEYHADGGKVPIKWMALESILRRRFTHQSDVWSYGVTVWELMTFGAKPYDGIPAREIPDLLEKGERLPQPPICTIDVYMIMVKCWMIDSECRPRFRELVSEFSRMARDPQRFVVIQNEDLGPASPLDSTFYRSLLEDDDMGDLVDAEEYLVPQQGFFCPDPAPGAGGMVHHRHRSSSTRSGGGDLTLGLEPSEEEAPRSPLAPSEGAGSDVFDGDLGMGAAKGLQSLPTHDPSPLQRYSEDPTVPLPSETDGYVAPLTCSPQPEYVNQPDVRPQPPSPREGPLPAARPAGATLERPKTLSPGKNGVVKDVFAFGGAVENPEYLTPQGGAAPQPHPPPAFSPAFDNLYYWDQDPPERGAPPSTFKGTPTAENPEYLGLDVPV", "test": "Cellular Phosphorylation Assay, Assay 4 (constitutive ErbB2 phosphorylation, NIH 3T3 cells)", "format": "cell-based", "conditions": "ErbB2 YVMA phosphorylation"}, "[2]": {"biological_target": "BCRP transfected MDCKII cells (Homo sapiens (Human), UniProt Q9UNQ0)", "test": "BCRP MDCKII efflux assay (Assay 7)", "format": "in vitro ADME", "conditions": "efflux ratio Papp(B-A)/Papp(A-B)", "description": "Assay conditions included with and without the BCRP-specific inhibitor, KO143, at a concentration of 0.3 μM to ascertain the contribution of BCRP to the efflux value of the test compound.\nFinal organic concentration in the assay was 1%."}, "[3]": {"biological_target": "MDR1 (P-gp) transfected LLC-PK1 cells (Homo sapiens (Human), UniProt P08183)", "sequence (P08183 whole entry)": "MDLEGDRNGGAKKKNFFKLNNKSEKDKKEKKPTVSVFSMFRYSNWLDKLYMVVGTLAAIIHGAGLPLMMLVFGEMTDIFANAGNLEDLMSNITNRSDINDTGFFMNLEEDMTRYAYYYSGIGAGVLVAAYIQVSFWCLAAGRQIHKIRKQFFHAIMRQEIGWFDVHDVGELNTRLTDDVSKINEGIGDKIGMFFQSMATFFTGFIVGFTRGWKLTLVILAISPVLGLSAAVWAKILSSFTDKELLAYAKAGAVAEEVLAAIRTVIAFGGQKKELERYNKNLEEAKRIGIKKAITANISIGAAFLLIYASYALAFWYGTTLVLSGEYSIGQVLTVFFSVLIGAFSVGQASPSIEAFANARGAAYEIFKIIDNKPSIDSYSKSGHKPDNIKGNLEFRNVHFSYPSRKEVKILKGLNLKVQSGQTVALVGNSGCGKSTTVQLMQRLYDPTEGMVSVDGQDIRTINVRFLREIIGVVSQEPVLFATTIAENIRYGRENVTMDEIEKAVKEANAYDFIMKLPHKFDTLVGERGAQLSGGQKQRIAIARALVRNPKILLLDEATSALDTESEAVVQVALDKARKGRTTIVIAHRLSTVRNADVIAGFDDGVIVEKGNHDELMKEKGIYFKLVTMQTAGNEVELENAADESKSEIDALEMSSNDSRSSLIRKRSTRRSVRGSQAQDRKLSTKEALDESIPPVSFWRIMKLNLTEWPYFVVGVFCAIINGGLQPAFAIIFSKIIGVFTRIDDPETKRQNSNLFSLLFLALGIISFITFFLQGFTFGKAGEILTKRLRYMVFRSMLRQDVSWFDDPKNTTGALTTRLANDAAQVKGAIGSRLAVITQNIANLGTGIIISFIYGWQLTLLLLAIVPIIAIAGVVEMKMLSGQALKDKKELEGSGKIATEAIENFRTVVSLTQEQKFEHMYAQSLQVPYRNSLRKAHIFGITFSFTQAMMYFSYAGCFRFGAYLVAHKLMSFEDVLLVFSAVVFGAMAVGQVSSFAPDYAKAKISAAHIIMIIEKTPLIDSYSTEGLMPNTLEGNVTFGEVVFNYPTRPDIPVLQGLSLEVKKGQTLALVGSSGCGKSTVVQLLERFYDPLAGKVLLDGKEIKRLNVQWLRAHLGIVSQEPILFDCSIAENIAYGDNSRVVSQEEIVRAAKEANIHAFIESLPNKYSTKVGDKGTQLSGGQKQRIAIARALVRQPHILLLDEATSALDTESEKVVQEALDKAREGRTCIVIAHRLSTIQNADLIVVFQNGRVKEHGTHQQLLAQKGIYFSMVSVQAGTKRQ"}}, "note": "pIC50: −log10 of the molar value."}
{"smiles": "C=CC(=O)N1[C@@H]2CC[C@H]1C[C@@H](c1ccc3ncnc(Nc4ccc(Oc5cnc6c(c5)ncn6C)c(C)c4F)c3n1)C2", "note": "[Example 227, 1-((1R,3r,5S)-3-(4-((2-fluoro-3-methyl-4-((3-methyl-3H-imidazo[4,5-b]pyridin-6-yl)oxy)phenyl)amino)pyrido[3,2-d]pyrimidin-6-yl)-8-azabicyclo[3.2.1]octan-8-yl)prop-2-en-1-one]", "values": [{"measurement": "pIC50", "setting": "ErbB2 WT", "result": 6.86}, {"measurement": "pIC50", "setting": "EGFR wild type (EGFR WT)", "result": 5.30}, {"measurement": "pIC50", "setting": "EGFR", "result": 5.42}, {"measurement": "pIC50", "setting": "[1]", "result": 7.57}, {"measurement": "Assay 7 Pe Ratio", "setting": "[2]", "result": 5.5}, {"measurement": "efflux ratio", "setting": "[3]", "result": 1.2}]}
